Drawing on US11667636B2, “Modulators of Mas-related G-protein receptor X2 and related products and methods” (Escient Pharmaceuticals, Inc., priority 2020, dated 2023), this text covers IC50 for 35 compounds.

SMILES strings stand for the structures. Where only a bound is given, the exact number is not on record here.

The target in the assay is T1, human MRGPRX2 (Homo sapiens, UniProt Q96LB1).
T1 construct: expressed in transfected cells
T1 sequence (Q96LB1 1-330): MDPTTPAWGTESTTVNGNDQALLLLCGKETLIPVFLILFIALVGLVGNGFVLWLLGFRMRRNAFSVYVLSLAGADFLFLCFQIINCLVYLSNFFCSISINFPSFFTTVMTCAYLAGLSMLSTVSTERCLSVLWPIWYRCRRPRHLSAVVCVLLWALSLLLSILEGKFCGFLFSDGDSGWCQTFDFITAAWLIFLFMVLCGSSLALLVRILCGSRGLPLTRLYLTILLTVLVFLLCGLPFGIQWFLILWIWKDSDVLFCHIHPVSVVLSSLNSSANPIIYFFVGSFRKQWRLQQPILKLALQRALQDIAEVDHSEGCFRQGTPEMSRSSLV
The experiment in a line: MRGPRX2 Activity: IP-One HTRF antagonist assay in CHO cells stably expressing human MRGPRX2, versus Cortistatin-14. The format is cell-based. The settings on record: versus 0.3 uM Cortistatin-14 agonist, IP-1 HTRF, read-out: MRGPR2 Antagonist Activity. Here is the method:
CHO cells stably transfected to express human MRGPRX2 were maintained in an incubator at 37° C. with 5% CO2 and grown in F12 (HAM) media with 10% fetal bovine serum (FBS), 1% Glutamax, 1% penicillin/streptomycin, 800 μg/mL Geneticin (G418), and 300 μg/mL Hygromycin B. Cells were plated in a 384-well assay plate at 20,000 cells per well in 12 μL of Opti-MEM and kept in an incubator overnight. On the day of the assay, compounds solubilized at 10 mM in DMSO were added as a 10-point curve (30 uM final top concentration with 1:3 serial dilutions) using a Tecan D300E digital dispenser. Agonists were diluted in assay buffer (final concentrations of 5.7 mM Tris-HCl, 43 mM NaCl, 50 mM LiCl, pH=8) and 2 μL of the agonist Cortistatin-14 (CPC Scientific, catalog CORT-002) are added to each well. Final concentrations of agonists were 0.3 μM Cortistatin-14. Final concentrations of DMSO were kept consistent across the plate. Plates were incubated in the dark for 1 hr at 37° C. and then for 1 hr at room temperature. IP-1 standards and HTRF detection reagents were added according to the IP-One-Gq Kit purchased from Cisbio (part number 62IPAPEJ) and incubated in the dark for 1 hr at room temperature. The plate was read on a Molecular Devices SpectraMax iD5 plate reader. The HTRF ratio was calculated from the raw data and graphed using GraphPad Prism to calculate an IC50 value for each compound.
The activity ranges are denoted as follows: “+++++” denotes antagonist activity <50 nM; “++++” denotes antagonist activity between 51 and 100 nM; “+++” denotes activity between 101 and 500 nM; “++” denotes activity between 501 and 1000 nM; and “+” denotes activity >1000 nM
Background: In TR-FRET formats the signal depends on donor and acceptor labels being close together.
`COc1ccc(C(=O)N[C@@H]2CCC[C@H](Nc3cccc4oc(C(F)(F)F)nc34)C2)cc1` [Example 4, 4-methoxy-N-[(1R,3S)-3-[[2-(trifluoromethyl)-1,3-benzoxazol-4-yl]amino]cyclohexyl]benzamide]: the IC50 is 501 to 1000 nM.
On to `O=C(N[C@H]1CC[C@@H](Nc2cccc3nc(C(F)(F)F)cn23)CC1)c1c[nH]nc1C(F)(F)F` [2-177], for which the IC50 was below 50 nM.
The value for `O=C(N[C@H]1CC[C@@H](Nc2cccc3nc(C(F)(F)F)cn23)CC1)c1ccc(F)cc1` [2-157] was below 50 nM; that for `COc1ccc(C(=O)N[C@H]2CC[C@@H](Nc3cccc4nc(C(F)(F)F)sc34)CC2)cc1` [1-22] was 51 to 100 nM; that for `COc1ccc(C(=O)N[C@@H]2CCC[C@H](Nc3cccc4sc(C#N)cc34)C2)cc1` [1-16] was 101 to 500 nM.
With `COc1ccc(C(=O)N[C@H]2CC[C@@H](Nc3cccc4nn(C(F)(F)F)cc34)CC2)cc1` [1-21], the IC50 lay within 51 to 100 nM.
For `O=C(N[C@H]1CC[C@@H](Nc2cccc3nc(C(F)F)cn23)CC1)c1cccc2cn[nH]c12` [2-193], the IC50 is below 50 nM.
With `O=C(N[C@H]1CC[C@@H](Nc2cccc3nc(C(F)F)cn23)CC1)c1nn2ccccc2c1NCC(F)F` [2-269] the figure was 101 to 500 nM; with `COc1ccc(C(=O)N[C@H]2CC[C@@H](Nc3cccc4sc(C(F)(F)F)nc34)CC2)cc1` [1-17], above 1000 nM; with `O=C(N[C@H]1CC[C@@H](Nc2cccc3nc(C(F)(F)F)cn23)CC1)c1ccccc1NCC(F)F` [2-188], below 50 nM.
Turning to `CC(C)(F)Cn1cc(C(=O)N[C@H]2CC[C@@H](Nc3cccc4nc(C(F)F)cn34)CC2)c(Cl)n1` [2-257], the IC50 was below 50 nM.
The value for `O=C(N[C@H]1CC[C@@H](Nc2cccc3nc(C(F)(F)F)cn23)CC1)c1cn(CC(F)(F)F)nc1Cl` [Example 12, 3-chloro-1-(2,2,2-trifluoroethyl)-N-((1s,4s)-4-((2-(trifluoromethyl)imidazo[1,2-a]pyridin-5-yl)amino)cyclohexyl)-1H-pyrazole-4-carboxamide] was below 50 nM; that for `CNc1ccccc1C(=O)N[C@H]1CC[C@@H](Nc2cccc3nc(C(F)F)cn23)CC1` [2-276] was 51 to 100 nM; that for `O=C(N[C@H]1CC[C@@H](Nc2cccc3nc(C(F)F)cn23)CC1)c1ccc(F)cc1Cl` [2-149] was 101 to 500 nM.
The value for `Cn1ncc(C(=O)N[C@H]2CC[C@@H](Nc3cccc4nc(C(F)F)cn34)CC2)c1NCC(F)F` [2-270] was 51 to 100 nM; that for `CN(CC(F)F)c1ccc(C(=O)N[C@H]2CC[C@@H](Nc3cccc4nc(C(F)F)cn34)CC2)cc1` [2-274] was below 50 nM; that for `CNc1ccc(C(=O)N[C@H]2CC[C@@H](Nc3cccc4nc(C(F)F)cn34)CC2)cc1` [2-195] was below 50 nM.
As to `O=C(N[C@H]1CC[C@@H](Nc2cccc3sc(C(F)F)cc23)CC1)c1ccc(F)cc1` [1-13], the IC50 fell in the range of 51 to 100 nM.
With `Cc1n[nH]c2c(C(=O)N[C@H]3CC[C@@H](Nc4cccc5nc(C(F)(F)F)cn45)CC3)cccc12` [2-183] the figure was below 50 nM; with `CC(C)S(=O)(=O)Nc1ccc(C(=O)N[C@H]2CC[C@@H](Nc3cccc4nc(C(F)(F)F)cn34)CC2)cc1` [2-203], below 50 nM; with `CN(CC(F)F)c1cccc(C(=O)N[C@H]2CC[C@@H](Nc3cccc4nc(C(F)(F)F)cn34)CC2)c1` [2-14], 51 to 100 nM.
Regarding `O=C(N[C@H]1CC[C@@H](Nc2cccc3nc(C(F)(F)F)sc23)CC1)c1ccc(F)cc1` [1-19], the IC50 fell in the range of 51 to 100 nM.
The value for `CNc1ccccc1C(=O)N[C@H]1CC[C@@H](Nc2cccc3nc(C#N)cn23)CC1` [2-262] was 101 to 500 nM.
With `O=C(N[C@H]1CC[C@@H](Nc2cccc3nc(C(F)(F)F)cn23)CC1)c1c[nH]nc1Cl` [2-176] the figure was below 50 nM; with `CC(C)n1cc(C(=O)N[C@H]2CC[C@@H](Nc3cccc4nc(C(F)(F)F)cn34)CC2)c(Cl)n1` [2-294], below 50 nM; with `O=C(N[C@H]1CC[C@@H](Nc2cccc3nc(C(F)(F)F)cn23)CC1)c1ccn2ccnc2c1` [2-208], 51 to 100 nM.
The value for `O=C(N[C@H]1CC[C@@H](Nc2cccc3nc(C(F)F)cn23)CC1)c1ccc(OCCF)cc1` [2-218] was below 50 nM.
As to `O=C(N[C@H]1CC[C@@H](Nc2cccc3nc(C(F)(F)F)cn23)CC1)c1ccc(NCC(F)F)cc1` [2-180], the IC50 was below 50 nM.
With `O=C(N[C@H]1CC[C@@H](Nc2cccc3nc(C(F)F)cn23)CC1)c1ccc(Cl)cc1Cl` [2-275] the figure was 101 to 500 nM; with `O=C(N[C@H]1CC[C@@H](Nc2cccc3nc(C(F)(F)F)cn23)CC1)c1c[nH]nc1C1CC1` [2-141], below 50 nM.
The value for `Cn1cc(C(=O)N[C@H]2CC[C@@H](Nc3cccc4nc(C(F)F)cn34)CC2)c(C(F)F)n1` [2-286] was 101 to 500 nM.
The value for `O=C(N[C@H]1CC[C@@H](Nc2cccc3nc(C(F)(F)F)cn23)CC1)c1cn(CC(F)F)nc1C(F)F` [Example 8, 1-(2,2-difluoroethyl)-3-(difluoromethyl)-N-[4-[[2-(trifluoromethyl)imidazo[1,2-a]pyridin-5-yl]amino]cyclohexyl]pyrazole-4-carboxamide] was below 50 nM; that for `O=C(N[C@H]1CC[C@@H](Nc2cccc3nc(C(F)(F)F)cn23)CC1)c1ccc2nccn2c1` [2-165] was below 50 nM; that for `O=C(N[C@H]1CC[C@@H](Nc2cccc3nc(C(F)(F)F)cn23)CC1)c1ccncc1` [2-162] was 101 to 500 nM.
For the compound `CCn1nccc1C(=O)N[C@H]1CC[C@@H](Nc2cccc3sc(C(F)(F)F)cc23)CC1` [2-3], the IC50 fell in the range of 101 to 500 nM.
